Measured values as given in patent US11447475B2, “Isoxazole N-linked carbamoyl cyclohexyl acids as LPA antagonists” (BRISTOL-MYERS SQUIBB COMPANY, priority 2017, dated 2022).
Like-named read-outs stand apart in the source and are kept apart here.

Biological target: T1, human LPA1 (Homo sapiens, UniProt Q92633)
T1 construct: expressed in transfected cells; host or cells: Chinese hamster ovary (CHO) cells
Assay: LPA1 functional antagonist assay (calcium flux)
Format: cell-based
Conditions: read-out: hLPA1 IC50
Protocol: The effectiveness of compounds of the present invention as LPA1 inhibitors can be determined in an LPA1 functional antagonist assay as follows:
Chinese hamster ovary cells overexpressing human LPA1 were plated overnight (15,000 cells/well) in poly-D-lysine coated 384-well microplates (Greiner bio-one, Cat #781946) in DMEM/F12 medium (Gibco, Cat #11039). Following overnight culture, cells were loaded with calcium indicator dye (AAT Bioquest Inc, Cat #34601) for 30 minutes at 37° C. The cells were then equilibrated to room temperature for 30 minutes before the assay. Test compounds solubilized in DMSO were transferred to 384 well non-binding surface plates (Corning, Cat #3575) using the Labcyte Echo acoustic dispense and diluted with assay buffer [1×HBSS with calcium/magnesium (Gibco Cat #14025-092), 20 mM HEPES (Gibco Cat #15630-080) and 0.1% fatty acid free BSA (Sigma Cat #A9205)] to a final concentration of 0.5% DMSO. Diluted compounds were added to the cells by FDSS6000 (Hamamatsu) at final concentrations ranging from 0.08 nM to 5 μM. and were then incubated for 20 min at room temperature at which time LPA (Avanti Polar Lipids Cat #857130C) was added at final concentrations of 10 nM to stimulate the cells. […] IC50 values were determined by fitting data to a 4-parameter logistic equation (GraphPad Prism, San Diego Calif.).

[1] = CHO cells overexpressing human LPA1, inhibition of calcium flux induced by 10 nM LPA

T1 sequence (Q92633 whole entry): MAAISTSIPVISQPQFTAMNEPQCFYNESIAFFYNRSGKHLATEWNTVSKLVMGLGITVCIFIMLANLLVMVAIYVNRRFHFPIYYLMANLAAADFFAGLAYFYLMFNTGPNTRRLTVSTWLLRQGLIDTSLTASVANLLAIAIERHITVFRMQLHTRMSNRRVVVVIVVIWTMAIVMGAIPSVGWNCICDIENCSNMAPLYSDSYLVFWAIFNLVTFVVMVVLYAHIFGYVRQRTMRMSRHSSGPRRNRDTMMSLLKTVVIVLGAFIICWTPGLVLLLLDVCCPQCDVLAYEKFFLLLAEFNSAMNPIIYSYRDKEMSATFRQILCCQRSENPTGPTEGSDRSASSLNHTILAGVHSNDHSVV

Structure (SMILES) | IC50 [µM] | IC50 [1] [µM]
Cc1nc(-c2onc(C)c2CNC(=O)OC(C)(C)C)ccc1O[C@H]1CCC[C@H](C(=O)O)C1 [Example 50, (1S,3S)-3-((6-(4-(((tert-butoxycarbonyl)amino)methyl)-3-methylisoxazol-5-yl)-2-methylpyridin-3-yl)oxy)cyclohexane-1-carboxylic Acid] | 0.044 | 
Cc1noc(-c2ccc(O[C@@H]3CCC[C@@H](C(=O)O)C3)cc2)c1CNC(=O)OCC(C)(C)C (racemic) [Example 26] | 0.334 | 
Cc1noc(-c2ccc(O[C@H]3CCC[C@H](C(=O)O)C3)cn2)c1NC(=O)O[C@H](C)C1CC1 [Example 34, (1S,3S)-3-((6-(4-((((R)-1-cyclopropylethoxy)carbonyl)amino)-3-methylisoxazol-5-yl)pyridin-3-yl)oxy)cyclohexane-1-carboxylic Acid] | 0.03 | 
Cc1noc(-c2ccc(O[C@@H]3CCC[C@@H](C(=O)O)C3)cc2)c1CNC(=O)OCc1cccc(F)c1 (racemic) [Example 21] | 0.257 | 
CCCCOC(=O)NCc1c(C)noc1-c1ccc(O[C@H]2CCC[C@H](C(=O)O)C2)c(C)n1 [Example 42] | 0.008 | 
CCCCCCOC(=O)NCc1c(C)noc1-c1ccc(O[C@H]2CCC[C@H](C(=O)O)C2)c(C)n1 [Example 44] | 0.006 | 
CCC(C)COC(=O)NCc1c(C)noc1-c1ccc(O[C@@H]2CCC[C@@H](C(=O)O)C2)cc1 (mixture of isomers) [Example 25] | 0.096 | 
Cc1noc(-c2ccc(O[C@H]3CCC[C@H](C(=O)O)C3)cc2)c1CNC(=O)OCc1cccc(Cl)c1 [Example 11] | 0.197 | 
Cc1noc(-c2ccc(O[C@H]3CCC[C@H](C(=O)O)C3)cn2)c1CNC(=O)OCc1cc(F)cc(F)c1 [Example 37, (1S,3S)-3-((6-(4-(((((3,5-difluorobenzyl)oxy)carbonyl)amino)methyl)-3-methylisoxazol-5-yl)pyridin-3-yl)oxy)cyclohexane-1-carboxylic Acid] |  | 0.027
Cc1noc(-c2ccc(O[C@H]3CCC[C@H](C(=O)O)C3)cn2)c1CNC(=O)OCC1CCC1 [Example 7] | 0.016 | 
Cc1noc(-c2ccc(O[C@H]3CCC[C@H](C(=O)O)C3)cn2)c1CNC(=O)OC1CC(C)(C)C1 [Example 59] | 0.011 | 
Cc1noc(-c2ccc(O[C@@H]3CCC[C@@H](C(=O)O)C3)cc2)c1CNC(=O)O[C@H](C)c1ccccc1 (mixture of isomers) [Example 17] | 0.293 | 
Cc1nc(-c2onc(C)c2CNS(=O)(=O)Cc2ccccc2)ccc1O[C@H]1CCC[C@H](C(=O)O)C1 [Example 51, (1S,3S)-3-((2-methyl-6-(3-methyl-4-(((phenylmethyl)sulfonamido)methyl) Isoxazol-5-yl)pyridin-3-yl)oxy)cyclohexane-1-carboxylic Acid] |  | 0.62

More lines, now with the values ahead:

IC50 [µM] | IC50 [1] [µM] | Structure (SMILES)
0.229 |  | Cc1noc(-c2ccc(O[C@H]3CCC[C@H](C(=O)O)C3)cn2)c1CNC(=O)NCc1ccccc1 [Example 35, (1S,3S)-3-((6-(4-((3-benzylureido)methyl)-3-methylisoxazol-5-yl)pyridin-3-yl)oxy)cyclohexane-1-carboxylic Acid]
0.049 |  | Cc1noc(-c2ccc(O[C@@H]3CCC[C@@H](C(=O)O)C3)cn2)c1CNC(=O)OCc1ccccc1 (single isomer, unassigned) [Example 57]
 | 0.009 | Cc1noc(-c2ccc(O[C@H]3CCC[C@H](C(=O)O)C3)cn2)c1CNC(=O)OCc1ccc(F)cc1 [Example 1, (1S,3S)-3-((6-(4-(((((4-Fluorobenzyl)oxy)carbonyl)amino)methyl)-3-methylisoxazol-5-yl) Pyridin-3-yl)oxy)cyclohexanecarboxylic Acid]
0.03 |  | Cc1noc(-c2ccc(O[C@H]3CCC[C@H](C(=O)O)C3)cn2)c1CNC(=O)OCc1cccc(Cl)c1 [Example 4]
0.014 |  | Cc1noc(-c2ccc(O[C@H]3CCC[C@H](C(=O)O)C3)cn2)c1CN(C)C(=O)OCc1ccccc1 [Example 64]
0.025 |  | Cc1cccc(COC(=O)NCc2c(C)noc2-c2ccc(O[C@H]3CCC[C@H](C(=O)O)C3)cn2)c1 [Example 5]
